Measured values reported in patent US20180208920A1, “MOLECULAR MACHINES” (Commonwealth Scientific and Industrial Research Organisation, priority 2015, published 2018).

What was measured:
CaNOX::AaE2 = format: biochemical, Alicyclobacillus acidophilus; settings: after 5 min incubation with inhibitor on ice
[1] = tested on: EcG3PD::CaNOX::AaE2 (TriF2); format: biochemical, Alicyclobacillus acidophilus; settings: after 5 min incubation with inhibitor on ice
[2] = Batch reactions converting glycerol to G3P and DHAP; format: biochemical
Experimental: Reactions were conducted at room temperature in 1 mL total volume with 10 mM glycerol as starting substrate, between 1 and 14 nM of enzyme and 100 μM each of ATP and NAD. Samples were collected at various time points and analysed by LCMS (SIM monitoring for G3P and DHAP).
G3P and DHAP were separated using a modification of the method described in Prieto-Blanc et al., (2010). Chromatographic conditions were SIELC ObeliscN column (250 mm) with 50% mobile phase A, 50% mobile phase B for 30 minutes. Mobile phase A: 0.1% formic acid; mobile phase b: methanol with 0.1% acetic acid. Mass spectrophotometric detection was conducted using API-ES mode with an Agilent 6120 Quadroploe LCMS. Glycerol-3-phosphate was quantified by selected ion monitoring of ion 171, DHAP quantified by selected ion monitoring of ion 169, the three aldol condensation products fructose-1,6-biphosphate, “AP” and “XP” were quantified by selected ion monitoring of […].

CaNOX = assay: Kinetics of NADH oxidase (NOX) with modified cofactor; format: biochemical, Clostridium aminoverlaricum; settings: for Kcat / Km: cofactor as substrate of CaNOX
Experimental: (§1) The relative enzyme activity for the NAD-dependant glycerol-3-phosphate dehydrogenase enzymes identified for DHAP synthesis was assessed with the modified N^6-2AE-NAD. Kinetic data for EcG3PD and CaNOX was also obtained. To determine the relative activities and kinetic enzyme efficiency, modified N^6-2AE-NAD was reduced enzymatically, separated from enzymes using ultrafiltration and the amount of N^6-2AE-NADH calculated based on the absorbance A340nm.

EcG3PD2 = biological target: T1, EcG3PD2 (Escherichia coli, UniProt P0A6S7); assay: Kinetics of glycerol-3-phosphate dehydrogenase with modified cofactor; format: biochemical, E. coli; settings: EcG3PD, full kinetic analysis
T1 construct: His tag; made in house; host or cells: E. coli BL21AI or BL21DE3*
T1 sequence (P0A6S7 1-339): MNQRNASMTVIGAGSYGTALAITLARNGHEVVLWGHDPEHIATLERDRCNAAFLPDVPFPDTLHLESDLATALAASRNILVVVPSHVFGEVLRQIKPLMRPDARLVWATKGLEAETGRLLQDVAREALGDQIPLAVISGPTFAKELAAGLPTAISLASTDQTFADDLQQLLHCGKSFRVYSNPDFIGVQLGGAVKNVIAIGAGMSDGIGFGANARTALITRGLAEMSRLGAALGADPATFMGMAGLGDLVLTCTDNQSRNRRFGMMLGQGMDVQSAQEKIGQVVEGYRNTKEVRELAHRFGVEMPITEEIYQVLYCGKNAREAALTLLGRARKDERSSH
Experimental: as §1
(§2) Glycerol-3-phosphate dehydrogenase assays were conducted essentially as described by (Sakasegawa et al., 2004). Kinetics were determined by varying the concentrations of NAD/NADP or glycerol-3-phosphate, whilst maintaining the other components in excess, and kinetic determinants were calculated using Hyper (J. S. Easterby, Liverpool University). Substrate and cofactor concentrations ranged from 0.1 to 10×Km.

[3] = substrate: NC(=O)c1ccc[n+]([C@@H]2O[C@H](COP(=O)([O-])OP(=O)(O)OC[C@H]3O[C@@H](n4cnc5c(N)ncnc54)[C@H](O)[C@@H]3O)[C@@H](O)[C@H]2O)c1; assay: as above; format: biochemical, E. coli; settings: other: cofactor as substrate of EcG3PD2
Experimental: as §1, §2

[4] = substrate: NCCNc1ncnc2c1ncn2[C@H]1O[C@@H](COP(=O)(O)OP(=O)(O)OC[C@H]2O[C@@H]([n+]3cccc(C(N)=O)c3)C(O)C2O)C(O)C1O; assay: as above; format: biochemical, E. coli; settings: other: cofactor as substrate of EcG3PD2
Experimental: as §1, §2

CCCCCCSCC(=O)C(F)(F)F [1,1,1-trifluoro-3-(thiohexyl)propan-2-one]
residual esterase activity (CaNOX::AaE2): completely abolished | residual esterase activity [1]: completely abolished

Nc1ncnc2c1ncn2[C@@H]1O[C@H](COP(=O)(O)OP(=O)(O)OP(=O)(O)O)[C@@H](O)[C@H]1O [ATP, adenosine triphosphate]
turnover of ATP per hour ([2]; BiF1 plus BiF2 batch reaction): ~40 h⁻¹ | turnovers of ATP per batch reaction ([2]; BiF1 plus BiF2 batch, 90 mM conversion of glycerol from 0.1 mM ATP starting concentration): ~200 | turnovers of ATP per batch reaction ([2]; TriF1 plus TriF2 batch, 4.5 mM conversion of glycerol from 0.01 mM ATP starting concentration): ~450

NC(=O)C1=CN([C@@H]2O[C@H](COP(=O)(O)OP(=O)(O)OC[C@H]3O[C@@H](n4cnc5c(N)ncnc54)[C@H](O)[C@@H]3O)[C@@H](O)[C@H]2O)C=CC1 [NADH]
Kcat (CaNOX): 1204 ± 67.5 s⁻¹ | Km (CaNOX): 204 ± 15.4 µM

NCCNc1ncnc2c1ncn2[C@H]1O[C@@H](COP(=O)(O)OP(=O)(O)OC[C@H]2O[C@@H]([n+]3cccc(C(N)=O)c3)C(O)C2O)C(O)C1O (some centres unmarked) [N^6-2AE-NAD, N^6-(2-aminoethyl)-NAD^+]
activity retained with the modified cofactor compared with unmodified NAD (EcG3PD2): 78%

NCCNc1ncnc2c1ncn2[C@@H]1O[C@H](COP(=O)(O)OP(=O)(O)OC[C@H]2O[C@@H](N3C=CCC(C(N)=O)=C3)[C@H](O)[C@@H]2O)[C@@H](O)[C@H]1O [N^6-2AE-NADH]
catalytic efficiency compared to NADH as substrate (CaNOX; NOX1 (CaNOX)): reduction in the catalytic efficiency | Kcat (CaNOX): 343 ± 32.6 s⁻¹ | Km (CaNOX): 215 ± 27.2 µM

B1: EcG3PD2 (Escherichia coli K-12) (protein)
chain: MNQRNASMTVIGAGSYGTALAITLARNGHEVVLWGHDPEHIATLERDRCNAAFLPDVPFPDTLHLESDLATALAASRNILVVVPSHVFGEVLRQIKPLMRPDARLVWATKGLEAETGRLLQDVAREALGDQIPLAVISGPTFAKELAAGLPTAISLASTDQTFADDLQQLLHCGKSFRVYSNPDFIGVQLGGAVKNVIAIGAGMSDGIGFGANARTALITRGLAEMSRLGAALGADPATFMGMAGLGDLVLTCTDNQSRNRRFGMMLGQGMDVQSAQEKIGQVVEGYRNTKEVRELAHRFGVEMPITEEIYQVLYCGKNAREAALTLLGRARKDERSSH
notes: His tag; made in house; host or cells: E. coli BL21AI or BL21DE3*
Km [3]: 147.1 ± 25.4 µM | kcat [3]: 66.7 ± 10.6 s⁻¹ | kcat/Km [3]: 450000 M⁻¹ s⁻¹ | Km [4]: 181.2 ± 37.5 µM | kcat [4]: 63.5 ± 9.4 s⁻¹ | kcat/Km [4]: 350000 M⁻¹ s⁻¹
